These results are taken from US11407736B2 (priority 2019, dated 2022).

SMILES strings stand for the structures. Read-outs that look alike come from different tables or passages of the source.

One assay has as its target RIPK1 (Homo sapiens (Human), UniProt Q13546). Briefly: RIPK1 ADP-Glo biochemical kinase assay. The protocol: The final reaction volume was 5.0ul.
Adding 5 μl of ADP-Glo™ terminated the reaction.
A general note: ADP-Glo turns the ADP formed in a reaction into a luminescent signal.

For another assay, the system named is L929 cells. As to the kind of experiment: L929 cell necroptosis assay (TNFa + zVAD, CellTiter-Glo). The class given is cell-based, murine. The settings on record: Mus musculus. Summed up: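 Murine L929 cells, plated 18 h beforehand at 10K cells/well in RPMI 1640 with 10% FBS, were switched to medium containing 40 uM zVAD-fmk and given compound from 4-fold serial dilutions. Viability after 18 h of TNFa stimulation at 37° C was read by CellTiter-Glo luminescence.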
In general terms: Cellular ATP, detected with luciferase, serves as a proxy for viable cell number.

In another assay the test system is U937 cells. As to the kind of experiment: U937 cell necroptosis assay (TNFa + zVAD, CellTiter-Glo). The class given is cell-based, human. The settings on record: Homo sapiens. In a few lines:
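Human U937 and murine L929 cells in RPMI 1640/10% FBS were pre-incubated 1 h at 37 °C with serially diluted compound plus zVAD-fmk (U937 plated with 60 uM, L929 medium with 40 uM), then stimulated with 2 ng/mL TNFa (final). Viability read by CellTiter-Glo luminescence after 18 h.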

[1] abbreviates: L929, L929 cells, TNFa + zVAD, read-out: L929-CTG-recovery, L929, TNFa + zVAD (IC50).
[2] abbreviates: U-937, U937 cells, TNFa + zVAD, read-out: U937 Zvad TNF CTG Recovery, U937, TNFa + zVAD (IC50).
Setting [3] is: read-out: RIPK1 ADP-Glo Kinase (IC50).
Where [4] appears, read: L929, read-out: L929-CTG-recovery, L929, TNFa + zVAD (IC50), L929 cells, TNFa + zVAD.
Where [5] appears, read: U-937, read-out: U937 Zvad TNF CTG Recovery, U937, TNFa + zVAD (IC50), U937 cells, TNFa + zVAD.

RIPK1, sequence (Q13546 whole entry, species assumed): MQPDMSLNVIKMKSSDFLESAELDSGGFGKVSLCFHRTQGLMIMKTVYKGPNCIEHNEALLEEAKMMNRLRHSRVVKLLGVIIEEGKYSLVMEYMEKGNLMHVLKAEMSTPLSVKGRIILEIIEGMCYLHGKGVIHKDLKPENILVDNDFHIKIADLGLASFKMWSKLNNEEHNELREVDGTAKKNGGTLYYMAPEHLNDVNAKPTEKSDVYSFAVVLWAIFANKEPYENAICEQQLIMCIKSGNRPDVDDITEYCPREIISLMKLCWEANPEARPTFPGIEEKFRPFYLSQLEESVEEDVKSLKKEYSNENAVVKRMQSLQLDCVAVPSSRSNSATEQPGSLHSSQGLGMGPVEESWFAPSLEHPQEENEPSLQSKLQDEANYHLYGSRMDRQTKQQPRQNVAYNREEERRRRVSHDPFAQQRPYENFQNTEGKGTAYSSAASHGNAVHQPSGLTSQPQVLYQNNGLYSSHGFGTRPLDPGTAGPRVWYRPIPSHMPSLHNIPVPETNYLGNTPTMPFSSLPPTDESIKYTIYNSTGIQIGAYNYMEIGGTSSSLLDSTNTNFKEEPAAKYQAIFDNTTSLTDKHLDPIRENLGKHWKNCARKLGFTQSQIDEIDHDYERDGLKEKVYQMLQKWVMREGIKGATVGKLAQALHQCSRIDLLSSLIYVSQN

For orientation: IC50 means the midpoint of a concentration-inhibition curve. For the molecule `CN1CCN(C(C)(C)C#Cc2ccc3c(c2)N(C)C(=O)[C@@H](NC(=O)c2cc(Oc4ccccc4)ccn2)CO3)CC1` [Compound I-158, (S)—N-(5-methyl-7-(3-methyl-3-(4-methylpiperazin-1-yl)but-1-yn-1-yl)-4-oxo-2,3,4,5-tetrahydrobenzo[b][1,4]oxazepin-3-yl)-4-phenoxypicolinamide], the figures for the IC50 on RIPK1, with L929 cells (setting [1]) and in the assay with U937 cells (setting [2]) were 14.7 nM, 1640 nM and 9.5 nM, respectively.
For the molecule `CN1C(=O)[C@@H](NC(=O)c2cc(Oc3ccccc3)ccn2)COc2ccc(C#CC3(O)C[S+]([O-])C3)cc21` (stereo partly drawn) [Compound I-208, (S)—N-(7-((3-Hydroxy-1-oxidothietan-3-yl)ethynyl)-5-methyl-4-oxo-2,3,4,5-tetrahydrobenzo[b][1,4]oxazepin-3-yl)-4-phenoxypicolinamide], the 50% inhibitory concentration (IC50) was 17.2 nM on RIPK1 (setting [3]), 97.5 nM in the assay on L929 cells (setting [1]) and 0.6 nM in the assay with U937 cells (setting [2]).
On to `Cc1cccc(C)c1Cn1cnc(C(=O)N[C@H]2COc3ccc(C#CC(C)(C)O)cc3N(C)C2=O)n1` [Compound I-84, (S)-1-(2,6-dimethylbenzyl)-N-(7-(3-hydroxy-3-methylbut-1-yn-1-yl)-5-methyl-4-oxo-2,3,4,5-tetrahydrobenzo[b][1,4]oxazepin-3-yl)-1H-1,2,4-triazole-3-carboxamide], for which the IC50 on RIPK1 (setting [3]) was found to be 44.1 nM; in the assay on L929 cells (setting [1]), 12.2 nM; with U937 cells (setting [2]) it was 56.3 nM.
The matching figures for `CN1C(=O)[C@@H](NC(=O)n2cc(Cc3ccccc3)cn2)COc2ccc(C#CC(C)(C)O)cc21` [Compound I-213, (S)-4-Benzyl-N-(7-(3-hydroxy-3-methylbut-1-yn-1-yl)-5-methyl-4-oxo-2,3,4,5-tetrahydrobenzo[b][1,4]oxazepin-3-yl)-1H-pyrazole-1-carboxamide]: 35.2 nM, 45.5 nM and 1 nM.
For `COC(C)(C)C#Cc1ccc2c(c1)N(C)C(=O)[C@@H](NC(=O)c1cc(Oc3ccccc3)ccn1)CO2` [II-32, (S)—N-(7-(3-methoxy-3-methylbut-1-yn-1-yl)-5-methyl-4-oxo-2,3,4,5-tetrahydrobenzo[b][1,4]oxazepin-3-yl)-4-phenoxypicolinamide], the IC50 on RIPK1 (setting [3]) stood at 50.5 nM; in the assay with L929 cells (setting [4]) it was 57.4 nM; in the assay with U937 cells (setting [5]) it was 2.1 nM.
Regarding `CN1C(=O)[C@@H](NC(=O)c2n[nH]c(Cc3ccccc3)n2)COc2ccc(CCC(C)(C)O)cc21` [Compound I-28, (S)-5-benzyl-N-(7-(3-hydroxy-3-methylbutyl)-5-methyl-4-oxo-2,3,4,5-tetrahydrobenzo[b][1,4]oxazepin-3-yl)-1H-1,2,4-triazole-3-carboxamide], the half-maximal inhibitory concentration (IC50) on RIPK1 (setting [3]) was found to be 37.5 nM; with L929 cells (setting [1]), 674 nM; in the assay with U937 cells (setting [2]), 5.4 nM.
`CN1C(=O)[C@@H](NC(=O)c2ncn(Cc3ccccc3)n2)COc2ccc(CN3CCn4nc(C(F)(F)F)nc4C3)cc21` [Compound I-39, (S)-1-benzyl-N-(5-methyl-4-oxo-7-((2-(trifluoromethyl)-5,6-dihydro-[1,2,4]triazolo[1,5-a]pyrazin-7(8H)-yl)methyl)-2,3,4,5-tetrahydrobenzo[b][1,4]oxazepin-3-yl)-1H-1,2,4-triazole-3-carboxamide]: the IC50 was 36.4 nM at RIPK1 (setting [3]), 0.4 nM with L929 cells (setting [1]) and 2.7 nM in the assay on U937 cells (setting [2]).
For `Cc1cccc(C)c1Oc1ccnc(C(=O)N[C@H]2COc3ccc(C#CC(C)(C)O)cc3N(C)C2=O)c1` [Compound I-124, (S)-4-(2,6-dimethylphenoxy)-N-(7-(3-hydroxy-3-methylbut-1-yn-1-yl)-5-methyl-4-oxo-2,3,4,5-tetrahydrobenzo[b][1,4]oxazepin-3-yl)picolinamide] the same measures were 93.5 nM, 2120 nM and 88.7 nM.
For `CN1C(=O)[C@@H](NC(=O)c2n[nH]c(Cc3ccccc3)n2)COc2ccc(C#CCCOc3ccc4ncccc4c3)cc21` [Compound I-38, (S)-5-benzyl-N-(5-methyl-4-oxo-7-(4-(quinolin-6-yloxy)but-1-yn-1-yl)-2,3,4,5-tetrahydrobenzo[b][1,4]oxazepin-3-yl)-1H-1,2,4-triazole-3-carboxamide], the IC50 worked out at 68 nM on RIPK1 (setting [3]), 0.5 nM in the assay with L929 cells (setting [1]) and 3.6 nM in the assay with U937 cells (setting [2]).
Consider `CN1C(=O)[C@@H](NC(=O)c2n[nH]c(Cc3ccc(F)cc3)n2)COc2ccc(C#CC(C)(C)O)cc21` [Compound I-79, (S)-5-(4-fluorobenzyl)-N-(7-(3-hydroxy-3-methylbut-1-yn-1-yl)-5-methyl-4-oxo-2,3,4,5-tetrahydrobenzo[b][1,4]oxazepin-3-yl)-1H-1,2,4-triazole-3-carboxamide], for which the IC50 at RIPK1 (setting [3]) was 34.7 nM; in the assay with L929 cells (setting [1]) it was 0.8 nM; in the assay on U937 cells (setting [2]) it was 5.1 nM.
As for `CN1C(=O)[C@@H](NC(=O)c2ncn(Cc3ccccc3)n2)COc2ccc(C#CCCOc3ccc4ncccc4c3)cc21` [Compound I-37, (S)-1-benzyl-N-(5-methyl-4-oxo-7-(4-(quinolin-6-yloxy)but-1-yn-1-yl)-2,3,4,5-tetrahydrobenzo[b][1,4]oxazepin-3-yl)-1H-1,2,4-triazole-3-carboxamide], the IC50 at RIPK1 (setting [3]) was determined as 56.5 nM; in the assay with L929 cells (setting [1]), 0.2 nM; in the assay on U937 cells (setting [2]), 1 nM.
`CN1C(=O)[C@@H](NC(=O)c2n[nH]c(Cc3ccccc3)n2)COc2ccc(C#CCN3CCOCC3)cc21` [Compound I-96, (S)-5-benzyl-N-(5-methyl-7-(3-morpholinoprop-1-yn-1-yl)-4-oxo-2,3,4,5-tetrahydrobenzo[b][1,4]oxazepin-3-yl)-1H-1,2,4-triazole-3-carboxamide]: the IC50 was 31.7 nM at RIPK1 (setting [3]), 0.8 nM with L929 cells (setting [1]) and 3.1 nM in the assay on U937 cells (setting [2]).
The matching figures for `CN1C(=O)[C@@H](NC(=O)c2cc(OC3CCC3)ccn2)COc2ccc(C#CC3(O)COC3)cc21` [Compound I-153, (S)-4-cyclobutoxy-N-(7-((3-hydroxyoxetan-3-yl)ethynyl)-5-methyl-4-oxo-2,3,4,5-tetrahydrobenzo[b][1,4]oxazepin-3-yl)picolinamide]: 32.6 nM, 1240 nM and 16.1 nM.
The matching figures for `CN1C(=O)[C@@H](NC(=O)c2ncn(Cc3ccccc3F)n2)COc2ccc(CCC(=O)Nc3ccc4cn[nH]c4c3)cc21` [Compound I-7, (S)—N-(7-(3-((1H-indazol-6-yl)amino)-3-oxopropyl)-5-methyl-4-oxo-2,3,4,5-tetrahydrobenzo[b][1,4]oxazepin-3-yl)-1-(2-fluorobenzyl)-1H-1,2,4-triazole-3-carboxamide]: 21 nM, 1960 nM and 0.9 nM.
With `CN1C(=O)[C@@H](NC(=O)c2cc(Oc3ccccc3)ccn2)COc2ccc(C#CC(C)(C)C)cc21` [II-25, (S)—N-(7-(3,3-dimethylbut-1-yn-1-yl)-5-methyl-4-oxo-2,3,4,5-tetrahydrobenzo[b][1,4]oxazepin-3-yl)-4-phenoxypicolinamide], the IC50 on RIPK1 (setting [3]) was 226 nM; in the assay on L929 cells (setting [4]), 202 nM; in the assay on U937 cells (setting [5]), 2.4 nM.
On to `CN1C(=O)[C@@H](NC(=O)c2n[nH]c(Cc3ccccc3)n2)COc2ccc(CN3CCN(c4ccncc4)CC3)cc21` [Compound I-20, (S)-5-benzyl-N-(5-methyl-4-oxo-7-((4-(pyridin-4-yl)piperazin-1-yl)methyl)-2,3,4,5-tetrahydrobenzo[b][1,4]oxazepin-3-yl)-1H-1,2,4-triazole-3-carboxamide], for which the 50% inhibitory concentration (IC50) at RIPK1 (setting [3]) was 153 nM; with L929 cells (setting [1]) it was 53400 nM; with U937 cells (setting [2]), 13.6 nM.
